Data taken from patent publication US20030083483A1, “Molecular interaction sites of vimentin RNA and methods of modulating the same” (priority 1999, published 2003).
Converted amounts (≈) assume the structure as drawn.

How the values were obtained:
[1] = biological target: luciferase mRNA containing the TAR RNA structure in the 5′-UTR; assay: wheat germ lysate translation of luciferase mRNA with TAR in the 5′-UTR; format: biochemical, HIV; settings: read-out: concentration reducing translation by 50%
Description: It is believed that stabilization of mRNA structures near the 5′-cap also could be effected by specific “small” molecules, and that such binding would reduce the translational efficiency of the mRNA. To test this hypothesis, a plasmid was constructed containing the luciferase message behind a 5′-UTR containing a 27-mer RNA construct of the HIV TAR stem-loop bulge whose structure had been determined by NMR. The resulting mRNA could be expressed and capped in a wheat germ lysate translation system supplemented with T7 polymerase following addition of m^7G to the lysate. Insertion of a 9-base leader before the TAR structure (HIVluc+9) enhanced the translational efficiency, presumably by allowing the pre-initiation complex to form. The helicase activity associated with the pre-initiation complex can transiently melt out the TAR RNA structure, and the message is translated.

[2] = tested on: TAR RNA interaction with tat peptide; assay: disruption of TAR RNA interaction with tat peptide; format: binding, HIV-1
luciferase mRNA = assay: wheat germ lysate translation of luciferase mRNA; format: biochemical; settings: mRNA without TAR structure
Description: It is believed that stabilization of mRNA structures near the 5′-cap also could be effected by specific “small” molecules, and that such binding would reduce the translational efficiency of the mRNA. To test this hypothesis, a plasmid was constructed containing the luciferase message behind a 5′-UTR containing a 27-mer RNA construct of the HIV TAR stem-loop bulge whose structure had been determined by NMR.

E. coli = assay: high throughput screening assay for antibacterial activity; format: cell-based; settings: Escherichia coli; against E. coli; crude compounds, identical activity with analytically pure material; read-out: minimum inhibitory concentrations (MIC's)
Description: This activity was verified by manual solution synthesis of analytically pure material as described in Example 6 above, which had identical activity.

[3] = tested on: 27-mer model RNA sequence of the 16S A-site; assay: MASS mass spectrometry binding assay with 16S A-site 27-mer RNA; parameters: species or system prokaryotic; settings: for complexes detected with the 16S A site 27mer RNA: ESI-FTICR, mixture of five aminoglycosides, 16S and 18S targets simultaneously
Experimental: The compounds are screened for binding affinity using MASS or conventional high-throughput functional screens. The best scoring compounds from docking a 256-member library against the 16S A-site ribosomal RNA structure are shown in the table 5 below. The MASS assay was performed with the 27-mer model RNA sequence of the 16S A-site whose NMR structure has been determined. The transcription/translation assay was based on expression of a luciferase plasmid.
A preferred first step of MASS screening involves mixing the RNA target (or targets) with a combinatorial library of ligands designed to bind to a specific site on the target molecule(s). Specific noncovalent complexes formed in solution between the target(s) and any library members are transferred into the gas phase and ionized by ESI. As described herein, from the measured mass difference between the complex and the free target, the identity of the binding ligand can be determined. The dissociation constant of the complex can be determined in two ways: if a ligand with a known binding affinity for the target is available, a relative Kd can be measured by using the known ligand as an internal control and measuring the abundance of the unknown complex to the abundance of the control, alternatively, if no internal control is available, Kd's can be determined by making a series of measurements at different ligand concentrations and deriving a Kd value from the “titration” curve.
In a direct determination of solution phase dissociation constants (Kd's) by mass spectrometry, ESI-MS measurements of a solution containing a fixed concentration of RNA at different concentrations of ligand were obtained. By measuring the ratio of bound:unbound RNA at varying ligand concentrations, the Kd was determined by 1/slope of the “titration curve”. The MS derived value of 110 nM is in good agreement with previously reported literature value of 200 nM.
All mass spectrometry experiments were performed using an Apex II 70e electrospray ionization Fourier transform ion cyclotron resonance mass spectrometer (Bruker Daltonics, Billerica) employing an actively shielded 7 tesla superconducting magnet. RNA solutions were prepared in 50 mM NH4OAc (pH 7), mixed 1:1 v:v with isopropanol to aid desolvation, and infused at a rate of […] using a syringe pump. Ions were formed in a modified electrospray source (Analytica, Branford) employing an off axis, grounded electrospray probe positioned ca. 1.5 cm from the metalized terminus of the glass desolvation capillary biased at 5000 V. A counter-current flow of dry […] gas heated to 225C was employed to assist in the desolvation process. Ions were accumulated in an external ion reservoir comprised of an RF-only hexapole, a skimmer cone, and an auxiliary electrode for 1000 ms prior to transfer into the trapped ion cell for mass analysis. Each spectrum was the result of the coaddition of 16 transients comprised of […] acquired over a 90,909 kHz bandwidth resulting in a 700 ms detection interval. All aspects of pulse sequence control, data acquisition, and post acquisition processing were performed using a Bruker Daltonics datastation running XMASS version 4.0 on a Silicon Graphics (San Jose, Calif.) R5000 computer.
Mass spectrometry experiments were performed in order to detect complex formation between a library containing five aminoglycosides (Sisomicin (Sis), Tobramycin (Tob), Bekanomycin (Bek), Paromomycin (PM), and Livodomycin (LV)) and two RNA targets simultaneously. Signals from the (M-5H+)^5− charge states of free 16S and 18S RNAs are detected at m/z 1801.515 and 1868.338, respectively. The mass spectrometric assay reproduces the known solution binding properties of aminoglycosides to the 16S A site model and an 18S A site model with a neutral mass linker. Consistent with the higher binding affinity of theses aminoglycosides for the 16S A-site relative to the 18S A-site, aminoglycoside complexes are observed only with the 16S rRNA target. […]

18S A site model = assay: ESI-FTICR mass spectrometric complex detection with 18S A-site model RNA; format: binding, eukaryotic; settings: mixture of five aminoglycosides, 16S and 18S targets simultaneously
Experimental: Paromomycin, lividomycin (MW=761.354 Da), sisomicin (MW=447.269 Da), tobramycin (MW=467.2591 Da), and bekanamycin (MW=483.254 Da) were obtained from Sigma (St. Louis, Mo.) and ICN (Costa Mesa, Calif.) and were dissolved to generate 10 mM stock solutions. 2′ methoxy analogs of RNA constructs representing the prokaryotic (16S) rRNA and eukaryotic (18S) rRNA A-site were synthesized in house and precipitated twice from 1 M ammonium acetate following deprotection with ammonia (pH 8.5). The mass-tagged constructs contained an 18-atom mass tag (C12H2509) attached to the 5′-terminus of the RNA oligomer through a phosphodiester linkage.
All mass spectrometry experiments were performed using an Apex II 70e electrospray ionization Fourier transform ion cyclotron resonance mass spectrometer (Bruker Daltonics, Billerica) employing an actively shielded 7 tesla superconducting magnet. […]
Mass spectrometry experiments were performed in order to detect complex formation between a library containing five aminoglycosides (Sisomicin (Sis), Tobramycin (Tob), Bekanomycin (Bek), Paromomycin (PM), and Livodomycin (LV)) and two RNA targets simultaneously. Signals from the (M-5H+)^5− charge states of free 16S and 18S RNAs are detected at m/z 1801.515 and 1868.338, respectively. […]

[4] = general statement; cited from earlier work
[5] = general statement; cited from earlier work; remark: listed apart in the source

With `CNc1ccc(NCCO)c2c1C(=O)c1ccccc1C2=O` [ACD 00001199] the IC50 [1] was 50 µM, the “concentration at which binding to TAR RNA disrupts the interaction with tat peptide” value [2] was 1 µM and the IC50 values ([2]; in words, assay not stated, TAR ligands) was “low”. For the same compound, the “inhibition of translation of the luciferase mRNA” value (luciferase mRNA) was “some inhibition of translation at very high concentrations”.
Work on `O=C(NO)[C@@H](Cc1ccc2ccccc2c1)NS(=O)(=O)c1ccc2ccccc2c1` [Compound 5-n-ii, (2R)-3-(2-naphthyl)-2-((2-naphthylsulfonyl)Amino)Propanehydroxamic Acid] yielded an MIC (E. coli) of 0.7 to 1.5 µM (≈ 0.294 to 0.631 µg/mL).
For `O=C(NO)[C@@H](Cc1ccc2ccccc2c1)NS(=O)(=O)c1ccc(Br)cc1` [Compound 5-n-vi, (2R)-2-(((4-bromophenyl)Sulfonyl)Amino)-3-(2-naphthyl)Propanehydroxamic Acid], the MIC (E. coli) was 3 to 6 µM (≈ 1.35 to 2.7 µg/mL).
In the case of `NC[C@H]1O[C@H](O[C@H]2[C@H](O)[C@@H](O[C@H]3O[C@H](CO)[C@@H](O)[C@H](N)[C@H]3O)[C@H](N)C[C@@H]2N)[C@H](N)[C@@H](O)[C@@H]1O` [bekamycin, bekanamycin], the “complexes detected with the 16S A site 27mer RNA” value (from here on “complexes detected”) [3] is reported as “Weaker complexes”.
For `NC[C@@H]1O[C@H](O[C@H]2[C@@H](O)[C@H](O[C@@H]3[C@@H](O)[C@H](N)C[C@H](N)[C@H]3O[C@H]3O[C@H](CO)[C@@H](O)C[C@H]3N)O[C@@H]2CO)[C@H](N)[C@@H](O)[C@@H]1O[C@H]1O[C@H](CO)[C@@H](O)[C@H](O)[C@@H]1O` [lividomycin], the Kd ([3]; 16S A site 27mer, ESI-MS titration, read-out: KD measured by mass spectrometry) was 0.028 µM, the “complexes detected” value [3] was “High affinity complexes” and the “complexes with the 18S A site model” value (18S A site model) was “absence”.
With `CN[C@@H]1[C@@H](O)[C@@H](O[C@@H]2[C@@H](O)[C@H](O[C@H]3OC(CN)=CC[C@H]3N)[C@@H](N)C[C@H]2N)OC[C@]1(C)O` [sisomycin, sisomicin] the “complexes detected” value [3] was “Weaker complexes”.
For `C=C(NC(=O)C(=C)NC(=O)c1csc(C2=N[C@@H]3c4csc(n4)[C@H]4NC(=O)c5csc(n5)[C@H]([C@](C)(O)[C@@H](C)O)NC(=O)[C@H]5CSC(=N5)/C(=C/C)NC(=O)[C@H]([C@@H](C)O)NC(=O)c5csc(n5)[C@]3(CC2)NC(=O)[C@H](C)NC(=O)C(=C)NC(=O)[C@H](C)NC(=O)[C@H]([C@@H](C)CC)N[C@@H]2C=Cc3c([C@H](C)O)cc(nc3[C@H]2O)C(=O)O[C@@H]4C)n1)C(N)=O` [thiostrepton], the solubility [4] is given as “very poor” and the toxicity [5] is given as “relatively high”.
With `NC[C@H]1O[C@H](O[C@H]2[C@H](O)[C@@H](O[C@H]3O[C@H](CO)[C@@H](O)[C@H](N)[C@H]3O)[C@H](N)C[C@@H]2N)[C@H](N)C[C@@H]1O` [tobramycin] the “complexes detected” value [3] was “Weaker complexes”.
